This is an account of results in patent publication US7179825B2, “Retinoic acid mimetic anilides” (Janssen Pharmaceutica N.V., priority 1997, dated 2007).

The first assay deals with metabolism of retinoic acid in human breast cancer cells. Put plainly: Inhibition of retinoic acid (RA) metabolism (Example C.1). Type of assay: cell-based. The following applies: MCF7; MCF-7 human breast cancer cells, 3H-RA as substrate; concentration needed to reduce the amount of metabolites to 50% of the control. The gist of the method: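 MCF-7 cells, pre-stimulated with RA the day before, incubated with ³H-RA substrate and test compound in 1% DMSO. Polar ³H-metabolites separated from unmetabolized RA and counted by scintillation. IC50 is the concentration cutting metabolite formation to 50% of control, with blank run alongside.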
Usually IC50 stands for the concentration that inhibits the measured activity by half. `CC(C)C(c1ccc(NC(N)=O)cc1)n1ccnc1` (racemic) [Compound 266, (±)-4-[1-(1H-imidazol-1-yl)-2-methylpropyl]phenylurea]: the IC50 is 31.1 nM.
Still for that read-out and setting: to `CC(C)C(c1ccc(NC(=S)NC(=O)c2ccccc2)cc1)n1ccnc1` (racemic) [Compound 698, (±)-N-benzoyl-N′-[4-[1-(1H-imidazol-1-yl)-2-methylpropyl]phenyl]thiourea] belongs 39.6 nM.

The assay is the same for the next values; noted with them: MCF-7 human breast cancer cells, 3H-RA as substrate; concentration needed to reduce the amount of metabolites to 50% of the control.
For `CCC(CC)C(c1ccc(NC(=O)Cc2ccc(OC(C)C)cc2)cc1)n1ccnc1` (racemic) [Compound 92], the IC50 was 2.21 nM.
On the same count and under the same terms, to `CC(C)C(c1ccc(NC(=O)C2CCc3ccccc3O2)cc1)n1ccnc1` (stereo not shown) [Compound 217] belongs 5.14 nM; to `CCN(C)C(C)C(c1ccc(NC(=O)Cc2ccc(OC)c(OC)c2)cc1)n1ccnc1` (single isomer, unassigned) [Compound 416], 0.367 nM.
On the same count and under the same terms, next, `CCC(CC)C(c1ccc(NC(=O)Cc2cccc(OC)c2OC)cc1)n1ccnc1` (racemic) [Compound 102]: 0.0678 nM; `CC(=Cc1ccccc1)C(=O)Nc1ccc(C(C(C)C)n2cnnc2)cc1` (stereo not shown) [Compound 749]: 126 nM; `CC(Sc1ccccc1)C(c1ccc(NC(=O)Cc2ccc(Cl)cc2)cc1)n1ccnc1` (single isomer, unassigned) [Compound 369]: 82.2 nM.
As for `O=C(C=C(c1ccccc1)C1CCCCC1)Nc1ccc(C(c2ccc(Cl)cc2)n2ccnc2)cc1` (mixture of isomers) [Compound 514], the IC50 is more than 1000 nM.
On the same count and under the same terms, next, `CCOc1cc(CC(=O)Nc2ccc(C(C(CC)CC)n3ccnc3)cc2)ccc1OCc1ccccc1` (stereo not shown) [Compound 128]: 0.0181 nM.
Take `CCC(CC)C(c1ccc(NC(=O)C2CCN(C(=O)c3ccccc3)CC2)cc1)n1ccnc1` (racemic) [Compound 46]: the IC50 amounted to 1.95 nM.
Same read-out and setting: next, `C/C(=C\c1ccsc1)C(=O)Nc1ccc(C(C(C)C)n2ccnc2)cc1` (racemic) [Compound 596]: 7.92 nM; `C/C(=C\c1cc(=O)[nH]c2ccccc12)C(=O)Nc1ccc(C(C(C)C)n2ccnc2)cc1` (racemic) [Compound 603]: more than 100 nM.
Still for that read-out and setting: next, `CCOc1ccc(CC(=O)Nc2ccc(C(C(CC)CC)n3cncn3)cc2)cc1C` (racemic) [Compound 76]: 0.588 nM; `CC(C)C(c1ccc(NC(=O)c2ccoc2)cc1)n1ccnc1` (racemic) [Compound 172]: 3.41 nM.
Still for that read-out and setting: to `CC(C)C(c1ccc(NC(=O)c2ccc3ccccc3c2)cc1)n1ccnc1` (racemic) [Compound 179] belongs 36.9 nM.
For the compound `CC(C)C(c1ccc(NC(=O)Nc2cnccn2)cc1)n1ccnc1` (racemic) [Compound 271], the IC50 worked out at 2.45 nM.
Same read-out and setting: next, `C/C(C(=O)Nc1ccc(C(C(C)C)n2ccnc2)cc1)=C(/c1ccccc1)c1ccco1` (racemic) [Compound 207]: 25.4 nM.
On the same count and under the same terms, next, `CC(CC#N)C(c1ccc(NC(=O)Cc2ccc(Cl)cc2)cc1)n1ccnc1` (mixture of isomers) [Compound 371]: 3.59 nM; `CCC(CC)C(c1ccc(NC(=O)Cc2cc(C)c(C)c(C)c2)cc1)n1cncn1` (racemic) [Compound 81]: 0.231 nM; `CC(C)C(c1ccc(NC(=O)Cc2ccc(O)cc2)cc1)n1ccnc1` (stereo not shown) [Compound 668]: 3.16 nM.
Same read-out and setting: next, `CCC(C(=O)Nc1ccc(C(C(C)C)n2ccnc2)cc1)c1ccccc1` (mixture of isomers) [Compound 660]: 6.37 nM; `C/C(=C\c1cccs1)C(=O)Nc1ccc(C(C(C)C)n2ccnc2)cc1` (racemic) [Compound 595]: 3.83 nM.
Take `CC(C)C(c1ccc(NC(=O)CNC(=O)c2ccccc2)cc1)n1ccnc1` (racemic) [Compound 261]: the IC50 turned out to be 2.22 nM.
Same read-out and setting: next, `CC(C)C(c1ccc(NC(=S)Nc2ccccc2)cc1)n1ccnc1` (racemic) [Compound 697]: 17.1 nM; `CCC(CC)C(c1ccc(NC(=O)Cc2ccccc2O)cc1)n1ccnc1` (racemic) [Compound 107]: 1.44 nM.
For the compound `CC(C)C(c1ccc(NC(=O)C2(c3ccccc3)CCCC2)cc1)n1ccnc1` (stereo not shown) [Compound 191], the IC50 was more than 100 nM.
On the same count and under the same terms, next, `COc1ccc(C(=O)Nc2ccc(C(C(C)C)n3ccnc3)cc2)cc1OC` (racemic) [Compound 231]: 1.86 nM; `CC(C)C(=CC(=O)Nc1ccc(C(c2ccc(Cl)cc2)n2ccnc2)cc1)c1ccccc1` (mixture of isomers) [Compound 515]: more than 1000 nM; `CC(=O)Nc1ccc(C2(n3ccnc3)CCCCC2)cc1` [Compound 776]: 4.39 nM.
Regarding `COc1ccc(NC(=O)Nc2ccc(C(C(C)C)n3ccnc3)cc2)cc1OC` (racemic) [Compound 708], the IC50 is 1.61 nM.
Still for that read-out and setting: next, `CCCCOc1ccc(CC(=O)Nc2ccc(C(C(CC)CC)n3ccnc3)cc2)cc1` (racemic) [Compound 96]: 1.09 nM.
As to `CC(C)C(c1ccc(NC(=O)C2=Cc3ccccc3OC2)cc1)n1ccnc1` (racemic) [Compound 254], the IC50 worked out at 6.47 nM.
With `O=C(Nc1ccc(C(C2CCCCC2)n2ccnc2)cc1)/C(=C/c1ccccc1)c1ccccc1` (racemic) [Compound 468], the IC50 is more than 100 nM.
The same measure, in the same setting: next, `CCC(CC)C(c1ccc(NC(=O)Nc2nc3ccccc3s2)cc1)n1ccnc1` (racemic) [Compound 64]: 6.6 nM.

The next assay relates to Ovariectomized rats. Briefly: Vaginal keratinization test on ovariectomized rats (Example C.2). The following applies: Rattus norvegicus, po, estradiol undecylate induced keratinization, per os once daily on days 1-3, active dose = 50% of rats show complete suppression, read-out: LAD (lowest active dose). Format: in vivo. The gist of the method: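 Ovariectomized rats given s.c. estradiol undecylate (100 μg per 100 g body weight in sesame oil), then oral compound once daily on days 1-3 (vehicle PEG 200). Vaginas assessed histologically one day after last dose; lowest active dose (mg/kg) is the dose giving complete keratinization suppression in 50% of rats.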
Consider `CC(C)C(c1ccc(NC(N)=O)cc1)n1ccnc1` (racemic) [Compound 266, (±)-4-[1-(1H-imidazol-1-yl)-2-methylpropyl]phenylurea], for which the minimal effective dose is more than 10 mg/kg.
As to `CC(C)C(c1ccc(NC(=S)NC(=O)c2ccccc2)cc1)n1ccnc1` (racemic) [Compound 698, (±)-N-benzoyl-N′-[4-[1-(1H-imidazol-1-yl)-2-methylpropyl]phenyl]thiourea], the minimal effective dose amounted to 20 mg/kg.

The assay is the same for the next values; noted with them: estradiol undecylate induced keratinization, per os once daily on days 1-3, active dose = 50% of rats show complete suppression.
For `CCC(CC)C(c1ccc(NC(=O)Cc2ccc(OC(C)C)cc2)cc1)n1ccnc1` (racemic) [Compound 92], the “LAD (lowest active dose)” value is listed as 5.00 mg/kg.
For `CC(C)C(c1ccc(NC(=O)C2CCc3ccccc3O2)cc1)n1ccnc1` (stereo not shown) [Compound 217], the “LAD (lowest active dose)” value came out at 10.00 mg/kg.
Still for that read-out and setting: next, `CCN(C)C(C)C(c1ccc(NC(=O)Cc2ccc(OC)c(OC)c2)cc1)n1ccnc1` (single isomer, unassigned) [Compound 416]: more than 5.00 mg/kg.
The same measure, in the same setting: next, `CCC(CC)C(c1ccc(NC(=O)Cc2cccc(OC)c2OC)cc1)n1ccnc1` (racemic) [Compound 102]: 5.00 mg/kg; `CC(=Cc1ccccc1)C(=O)Nc1ccc(C(C(C)C)n2cnnc2)cc1` (stereo not shown) [Compound 749]: more than 20.00 mg/kg; `CC(Sc1ccccc1)C(c1ccc(NC(=O)Cc2ccc(Cl)cc2)cc1)n1ccnc1` (single isomer, unassigned) [Compound 369]: 10.00 mg/kg.
For `O=C(C=C(c1ccccc1)C1CCCCC1)Nc1ccc(C(c2ccc(Cl)cc2)n2ccnc2)cc1` (mixture of isomers) [Compound 514], the “LAD (lowest active dose)” value was more than 20.00 mg/kg.
Consider `CCOc1cc(CC(=O)Nc2ccc(C(C(CC)CC)n3ccnc3)cc2)ccc1OCc1ccccc1` (stereo not shown) [Compound 128], for which the “LAD (lowest active dose)” value amounted to 5.00 mg/kg.
Turning to `CCC(CC)C(c1ccc(NC(=O)C2CCN(C(=O)c3ccccc3)CC2)cc1)n1ccnc1` (racemic) [Compound 46], the “LAD (lowest active dose)” value is more than 2.50 mg/kg.
Same read-out and setting: to `C/C(=C\c1ccsc1)C(=O)Nc1ccc(C(C(C)C)n2ccnc2)cc1` (racemic) [Compound 596] belongs 10.00 mg/kg; to `C/C(=C\c1cc(=O)[nH]c2ccccc12)C(=O)Nc1ccc(C(C(C)C)n2ccnc2)cc1` (racemic) [Compound 603], more than 10.00 mg/kg.
The same measure, in the same setting: next, `CCOc1ccc(CC(=O)Nc2ccc(C(C(CC)CC)n3cncn3)cc2)cc1C` (racemic) [Compound 76]: more than 2.50 mg/kg.
Same read-out and setting: to `CC(C)C(c1ccc(NC(=O)c2ccoc2)cc1)n1ccnc1` (racemic) [Compound 172] belongs 10.00 mg/kg.
For the compound `CC(C)C(c1ccc(NC(=O)c2ccc3ccccc3c2)cc1)n1ccnc1` (racemic) [Compound 179], the “LAD (lowest active dose)” value is given as more than 10.00 mg/kg.
`CC(C)C(c1ccc(NC(=O)Nc2cnccn2)cc1)n1ccnc1` (racemic) [Compound 271]: the “LAD (lowest active dose)” value was 10.00 mg/kg.
Still for that read-out and setting: next, `C/C(C(=O)Nc1ccc(C(C(C)C)n2ccnc2)cc1)=C(/c1ccccc1)c1ccco1` (racemic) [Compound 207]: 10.00 mg/kg; `CC(CC#N)C(c1ccc(NC(=O)Cc2ccc(Cl)cc2)cc1)n1ccnc1` (mixture of isomers) [Compound 371]: 10.00 mg/kg; `CCC(CC)C(c1ccc(NC(=O)Cc2cc(C)c(C)c(C)c2)cc1)n1cncn1` (racemic) [Compound 81]: 2.50 mg/kg.
Still for that read-out and setting: to `CC(C)C(c1ccc(NC(=O)Cc2ccc(O)cc2)cc1)n1ccnc1` (stereo not shown) [Compound 668] belongs 5.00 mg/kg.
The same measure, in the same setting: next, `CCC(C(=O)Nc1ccc(C(C(C)C)n2ccnc2)cc1)c1ccccc1` (mixture of isomers) [Compound 660]: more than 10.00 mg/kg.
On to `C/C(=C\c1cccs1)C(=O)Nc1ccc(C(C(C)C)n2ccnc2)cc1` (racemic) [Compound 595], for which the “LAD (lowest active dose)” value was found to be 10.00 mg/kg.
Same read-out and setting: next, `CC(C)C(c1ccc(NC(=O)CNC(=O)c2ccccc2)cc1)n1ccnc1` (racemic) [Compound 261]: more than 10.00 mg/kg; `CC(C)C(c1ccc(NC(=S)Nc2ccccc2)cc1)n1ccnc1` (racemic) [Compound 697]: 10.00 mg/kg; `CCC(CC)C(c1ccc(NC(=O)Cc2ccccc2O)cc1)n1ccnc1` (racemic) [Compound 107]: more than 2.50 mg/kg.
For the compound `CC(C)C(c1ccc(NC(=O)C2(c3ccccc3)CCCC2)cc1)n1ccnc1` (stereo not shown) [Compound 191], the “LAD (lowest active dose)” value is on record as more than 10.00 mg/kg.
Still for that read-out and setting: to `COc1ccc(C(=O)Nc2ccc(C(C(C)C)n3ccnc3)cc2)cc1OC` (racemic) [Compound 231] belongs more than 10.00 mg/kg.
Same read-out and setting: to `CC(C)C(=CC(=O)Nc1ccc(C(c2ccc(Cl)cc2)n2ccnc2)cc1)c1ccccc1` (mixture of isomers) [Compound 515] belongs more than 20.00 mg/kg; to `CC(=O)Nc1ccc(C2(n3ccnc3)CCCCC2)cc1` [Compound 776], more than 20.00 mg/kg.
Same read-out and setting: next, `COc1ccc(NC(=O)Nc2ccc(C(C(C)C)n3ccnc3)cc2)cc1OC` (racemic) [Compound 708]: more than 5.00 mg/kg; `CCCCOc1ccc(CC(=O)Nc2ccc(C(C(CC)CC)n3ccnc3)cc2)cc1` (racemic) [Compound 96]: 2.50 mg/kg; `CC(C)C(c1ccc(NC(=O)C2=Cc3ccccc3OC2)cc1)n1ccnc1` (racemic) [Compound 254]: more than 5.00 mg/kg.
Consider `O=C(Nc1ccc(C(C2CCCCC2)n2ccnc2)cc1)/C(=C/c1ccccc1)c1ccccc1` (racemic) [Compound 468], for which the “LAD (lowest active dose)” value came out at 10.00 mg/kg.
Same read-out and setting: next, `CCC(CC)C(c1ccc(NC(=O)Nc2nc3ccccc3s2)cc1)n1ccnc1` (racemic) [Compound 64]: more than 5.00 mg/kg.
